From patent US11266743B2, “Peptide compositions and methods of use thereof” (priority 2017, dated 2022) come the findings set out here.

For series [1], the system named is S. aureus. Nature of the series: Radial diffusion in the presence of RBCs. It is filed as cell-based. Details: key: The ↑ represents the improvement in performance that would be desired for a viable in vivo antimicrobial peptide; ↓: The symbol represents a regression in desired behavior; *=p<0.05; **=p<0.01; ***=p<0.001. The following applies: change versus parent sequence; paired t-test. How it is done:
Underlay agarose was prepared by adding 5 g of low EEO agarose and 0.03 g of TSB to 500 mL of 10 mM phosphate buffer (pH=7.4). Overlay agarose was prepared by adding 5 g of low EEO agarose and 30 g of TSB to 500 mL of 10 mM phosphate buffer (pH=7.4). Both solutions were heated until the agarose melted and then were autoclaved. To a rectangular, one-well plate, 20 mL of underlay agarose, inoculated with 8×10^6 CFUs of bacteria, was added. A sterile, 96-well plate replicator from Sigma-Aldrich was set in the molten agarose and removed one the agarose solidified. Antibiotic was prepared at 4 times the final desired concentration. For the antibiotic standard, a serial dilution of 3:4 across a 96-well plate was performed followed by 1:4 dilution with PBS. Otherwise, the peptide was diluted to 20 μM with RBCs and/or serum to give between 2% (1×10^8 cells/mL) and 20% (1×10^9 cells/mL). Solutions were incubated with gentle shaking for 30 minutes at 37° C. […]. Overlay was added, and the plate was incubated upside down overnight. Surface growth was cleared, the plates were sterilized with 25% methanol and 5% acetic acid. Zones of inhibition were photographed and analyzed using ImageJ. (FIG. 21)
The engineered peptide sequences and their derivation from parent sequences is shown, along with the underlying hypothesis described for the first set of peptides (Table 4) and the second set (Table 5). We performed statistical testing for performance in antimicrobial assays in the presence and absence of RBCs, as well as for cytotoxicity. The broth dilution results were tested using a two sample t-test (N=6-22). The radial diffusion results were tested using a paired t-test (N=4). The cytotoxicity results were tested using a paired t-test (N=3). The ↑ represents the improvement in performance that would be desired for a viable in vivo antimicrobial peptide. This corresponds to a decrease in MIC values (increased potency) and decreased cytotoxicity. The symbol represents a regression in desired behavior. (*=p<0.05, **=p<0.01, ***=p<0.001).

Series [2] relates to P. aeruginosa biofilms. Nature of the series: Activity against P. aeruginosa biofilms. Type of series: cell-based. The conditions noted are these: 25 μM. How it is done: Bacterial biofilm formation on implanted medical devices is a serious medical problem because these biofilms can lead to life-threatening systemic infections. We tested selected peptides and rationally designed variants against biofilms formed by P. aeruginosa. […] D-NOGCON reduces viable bacteria by 3.6 logs ( 1/3000 reduction) at 25 μM, while the best conventional antibiotic, Ciprofloxacin, reduced viable bacteria by only 1.7 logs ( 1/55 reduction) at 25 μM.

Series [3] relates to P. aeruginosa. Nature of the series: Deep wound infection with luminescent P. aeruginosa, whole animal imaging. It is filed as in vivo, mice. How it is done:
Deep wounds in mice were infected with a luminescent strain of P. aeruginosa and monitored with whole animal imaging (FIGS. 35-37). In FIG. 36 infections are just beginning to become established. Areas of red indicate maximal bacterial colonization. No treatments have occurred. Treatment was twice per day, with 50 μg of D-NOGCON peptide in 20 μL of vehicle (0.025% acetic acid) starting 2 hours after infection. […] In the control animals (FIG. 36A), the infection is fully established across the entire wound bed and saturated the detector (red color). In the treated animals (FIG. 36B) the infection is much smaller in area and much lower in intensity, indicating it is under control.

The nature of series [4]: Safety study of aspirated D-NOGCON. Type of series: in vivo, C57BL/6 mice. The conditions noted are these: aspiration. How it is done: (§1) The mice were then treated with D-NOGCON (SEQ ID NO:37), which were instilled in the trachea, exactly as described above for the administration of bacterial infection. Before attempting to treat a P. aeruginosa infection of the lung, we sought to establish a safe dose for administration of the D-NOGCON peptide via aspiration. Based on in vitro toxicity data (FIGS. 28D and 28E), a dosing regimen of 50 μL of D-NOGCON (100 μM) was administered every 8 hours for 3 days (9 doses). As a no treatment control, we administered 50 μL of PBS on the same schedule.
To monitor the toxicity we measured animal behavior and body weight changes (FIG. 29A). […] In the second safety trial, we administered 50 μL of D-NOGCON (50 μM) twice daily, for three days and monitored the animals behavior and body weight changes (FIG. 29B).

Series [5] concerns P. aeruginosa PA01. Briefly: Acute pneumonia induced by P. aeruginosa aspiration. It is filed as in vivo, C57BL/6 mice. How it is done:
Female C57BL/6 mice, aged five weeks, were obtained from Charles River Laboratories. Upon receipt, they were allowed at least one week to recover from transport and acclimate to the new housing environment. Mice were maintained on a standard chow diet. Experiments were performed with mice no younger than six weeks and no older than nine weeks. P. aeruginosa PA01 was cultured overnight in tryptic soy broth (TSB) at 37° C. and shaken at 220 RPM. Prior to infecting the mice, the overnight culture was diluted 100-fold into 25-mL of fresh TSB. The culture was grown for three hours before optical density was determined. Previous growth curve experiments allowed us to dilute this newly expanded culture to 1.4×10^8 CFU/mL. To infect an animal, mice were anesthetized using isoflurane and 50 μL of bacterial suspension (7×10^6 CFUs) was administered via intratracheal instillation. Briefly, the anesthetized mice were suspended from wire by their front feet and blunt forceps were used to extract the tongue. The tongue was pulled out and downward. The bacterial suspension was deposited in the back of the throat with a micropipette. The nares of the animal were then covered while the mouse recovered from anesthesia. The chest was gently rubbed to promote inhalation. The mice were made to inhale 15 times before the tongue was released and the mouse was removed from the wire. The animals were then allowed a minute to fully awaken and then returned to their cages.
as §1
Our initial experiment was survival-based. We infected 8 mice (4 for treatment, 4 for vehicle) with the above bacterial load in 50 μL of PBS and allowed 2 hours of recovery prior to the initial treatment administration. After the recovery period, dosing proceeded as it had for the second safety study (50 μL, 50 μM, 2× daily). […] At the 24-hour time point, mice from both groups lost ˜12% body weight (FIG. 30A). Between 24 and 48-hour timepoints, 3 controls and 1 treated animal were sacrificed (FIG. 30B). […] Euthanasia is required in these cases because the animals are clearly suffering and are not able to obtain the nutrients required for survival. […] The lungs of 3 animals from each treatment group were removed, homogenized, and plated on PIA plates to determine the P. aeruginosa CFU burden (FIG. 30C).
A third study reduced the CFU burden of P. aeruginosa to 7×10^6 and mice were treated as with the previous experiment. As in the previous experiment, both treated and untreated animals lost 10-12% of their body weight after 24 hours (FIG. 31A). […] What was not taken into consideration in this experiment was the propensity for infection to spread to other tissues.

Series [6] relates to HeLa, RAW264.7, HepG2, and MCF-7 cells. Nature of the series: TAMRA delivery assay (flow cytometry, confocal microscopy). Type of series: cell-based. The conditions noted are these: 0.5 μM CPP-TA + 4.5 μM CPP-C, 30 minutes at 4° C., 22° C., or 37° C. How it is done: To determine the effect of the PNA cargo on delivery, we labeled CPPs, lacking the PNA705 cargo, with the fluorophore TAMRA on a C-terminal cysteine residue (CPP-TA) and measured delivery to multiple cell types. TAMRA-labelled CPPs, mixed with unlabeled CPPs at a 1:10 ratio in serum-free DMEM for a final concentration of 5 μM total peptide, was added to HeLa, RAW264.7, HepG2, and MCF-7 cells in 12-well cell culture plates and incubated for 30 minutes at 4° C., 22° C., or 37° C. prior to flow cytometric analysis (FIGS. 9-16). […] Delivery of TAMRA was verified by confocal microscopy for each cell type.
Hela, RAW264.7, HCT116, HepG2, and MCF-7 cells were plated in 12-well plates at 100,000 cells/well. After 24 hours, cells were gently washed in PBS, topped with 500 μl of CPP-TA solution containing 0.5 μM CPP-TA+4.5 uM CPP-C in sfDMEM without phenol red, and incubated for 30 min at either 4° C., 23° C., or 37° C. The incubation solution was aspirated and cells were treated with 100 μl 0.025% Trypsin for 3 minutes at 23° C. 500 μl DMEM containing 2% FBS, 125 nM Sytox Green, and 20 mM HEPES was used to suspend the cells. Cells were transferred to a filter-topped flow cytometry tube and analyzed on a BD™ LSR II flow cytometer. Cells displaying a normal morphology were gated and first analyzed for GFP fluorescence using the 488 nM laser. GFP negative cells were used to generate a histogram of TAMRA fluorescence, measured with the 543 nM laser.
Cells were treated as described above for the TAMRA delivery assay and immediately imaged to avoid artifacts resulting from fixation. The distribution of TAMRA and Sytox Green was analyzed using a confocal scanning Nikon Eclipse Ti2 inverted microscope using a 40× oil-immersion objective. Sytox Green was excited using the 488 nM laser and TAMRA was excited using the 543 nM laser.
On the technique in general: A flow cytometer gives signals particle by particle.

Series [7] concerns Hela cells stably transfected with mCherry and GFP1-10. Nature of the series: Split GFP assay (GFP-11 delivery). Type of series: cell-based. The conditions noted are these: 40 μM peptide-GFP-11, 37° C. How it is done: To test the ability of CPPs to deliver other cargoes, specifically a protease-sensitive peptide cargo, we modified the well-known split-GFP assay. CPPs were tested for the ability to deliver the polar 16-residue GFP-11 peptide across the membrane barrier. This peptide rescues the fluorescence of the cytosolic endogenous, non-fluorescent GFP1-10 protein. Here, we stably transfected Hela cells with a plasmid containing the full length mCherry and the non-fluorescent GFP1-10. Following incubation with CPP-GFP-11 constructs at multiple concentrations and temperatures for 30 minutes in serum free DMEM, cells were analyzed by flow cytometry for mCherry and GFP fluorescence (FIG. 17). Live cells expressing mCherry (˜50% of the total cells) were gated and their GFP fluorescence was analyzed. Unlike the luciferase splice correction assay where a single corrected mRNA transcript serves as template for many molecules of functional luciferase, the split GFP assay is stoichiometric; a single GFP-11 peptide can bind to a single GFP1-10 protein producing a finite fluorescent response.
Hela cells were transfected with p_mCherry-GFP1-10 (Addgene plasmid #78591) using LIPOFECTAMINE® 3000 (ThermoFisher). Single mCherry positive cells were sorted into 96-well plates using a BD™ FACSARIA™ cell sorter and colonies were maintained under G418 selection at […]. Stably transfected cells were plated in 12-well plates at 100,000 cells/well and grown overnight in complete DMEM. Cells were washed in PBS and incubated in 500 μl of CPP-GFP-11 solution at variable concentrations at 23° C. and 37° C. for 30 minutes. The CPP-GFP-11 solution was aspirated and 100 μl of 0.025% trypsin solution was added to each well. After detachment, cells were suspended in 500 μL of PBS+2% FBS and 20 mM HEPES. Cells were analyzed using a BD™ LSRII flow cytometer. Cells displaying a normal morphology were gated and first analyzed for mCherry fluorescence using the 543 nM laser. mCherry+ cells were used to generate a histogram of GFP fluorescence measured with the 488 nM laser.

Series [8] shares this test system. Briefly: Split GFP assay (GFP-11 delivery). Type of series: cell-based. The conditions noted are these: 40 μM peptide-GFP-11, 22° C.
Series [9] relates to P. aeruginosa. Briefly: Induced resistance, ten serial passages of broth sterilization assays. Type of series: cell-based. The conditions noted are these: ⅔ serially diluted antibiotics, overnight growth. An excerpt: Bacterial resistance against peptide antibiotics is known to occur, although it is reportedly more difficult to induce than resistance against conventional antibiotics. P. aeruginosa can gain resistance to some AMPs through selection for a variant with altered outer membrane composition. We used P. aeruginosa in a screen (FIG. 36) to select against rapid resistance. We tested if P. aeruginosa can stably gain resistance to the rationally designed peptides described herein and we compared their ability to adapt to conventional antibiotics under the same conditions. For ten serial passages, we performed broth sterilization assays using ⅔ serially diluted antibiotics with overnight growth. For each passage, we used the bacteria that grew at the highest antibiotic concentration to expand overnight for the subsequent generation. […] All of the conventional antibiotics promoted increasing resistance, and two promoted complete resistance by 10 passages.

“Also recorded” adds a separate entry of the source.

For the sequence RRWARRLAFAFRR [D-NOGCON], the “Radial Diffusion vs. S. aureus” value in [1] was “↑Radial diffusion vs”. Moreover, the “reduction of viable bacteria in biofilm” value in series [2] was 3.6 logs. In series [3] (after a single day of treatment, 50 μg in 20 μL twice per day starting 2 hours after infection), the “wound infection (luminescence imaging)” value was “dramatically reduced compared to the control”. The integrated luminescence entry in series [3] (first 5 days, treated on days 0, 1, and 2) is “significant protection, slowing of bacterial growth and more rapid clearance over control”. Besides, the “summed activity and behavior scores” value in [3] (scale 0 (normal) to 3 each for five items, maximum 15) is recorded as “more normal behavior; also recorded: better summed behavioral scores”. Also, the “tolerability (behavior and body weight changes)” value in series [4] (50 μL of 50 μM twice daily for three days) was “sufficiently safe”; in series [4] (50 μL of 100 μM every 8 hours for 3 days), “too toxic for the animals to tolerate”. Further, the body weight lost is about 12% in [5] (survival study, 24-hour time point, same in vehicle group); “more than 20%” in series [5] (survival study, day 3, all animals of both groups); 10-12% in [5] (third study, after 24 hours, same in untreated animals). The “survival of the initial 24 hours” value in series [5] (survival study, 50 μL, 50 μM, 2× daily, first dose 2 hours after infection) was “All mice from both treatment groups survived”. Also, the animals sacrificed in [5] (survival study, between 24 and 48-hour timepoints, 4 mice per group, 3 controls sacrificed) is on record as 1. Further, the infection titer entry in series [5] (survival trial, 50 μL, 50 μM, 2× daily) is reported as “little improvement in the infection titer”. For the same sequence, the “infection titer over control” value in series [5] (third experiment, lower CFU burden) is given as “little improvement”. In addition, the “CFU burden versus untreated” value in series [5] (third study, two doses over 24 hours) is given as “non-significant increase”.
For the sequence GRKKRRQRRRPPQ [TAT, reference compound], the “TAMRA delivery (words, rank order)” value in [6] is “CPP-2»CPP-3=CPP-1>CPP-4>TAT=penetratin”. Also, the figures for the “mCherry positive cells GFP-11 is delivered to” value in series [7] and in series [8] were 21% and 7%, respectively.
In the case of RRWARLRLVLAY [ARVA], the induction of resistance result in series [9] is reported as “promoted total resistance in a few passages”.
